Measurements taken from patent US20020137929A1, “1 - (3-heterocyclylphenyl) isothiourea, -isourea, -guanidine and -amidine herbicidal agents” (Intellectual Property Department, BASF Aktiengesellschaft, priority 1998, published 2002).

Tests used:
ZEAMX (Corn, Field) = assay: Postemergence herbicidal evaluation; type: in vivo, Zea mays; settings: postemergence
Procedure, shortened: (§1)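 ~2-wk seedlings; postemergence spray, 40 psi; vehicle 1:1 acetone:water + 0.5% Tween 20; rate ≈0.0156–0.500 kg/ha; greenhouse hold; scored 4–5 wk after treatment, 0–9 scale vs control; repeat tests averaged.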

GALAP (Galium) = assay: Preemergence herbicidal evaluation; type: in vivo, Galium aparine; settings: rated 4-5 weeks after treatment
Procedure, shortened: (§2)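 Rating at 4–5 wk post-spray on a 0–9 visual scale vs control. Application: aqueous acetone, ~0.0156–0.500 kg/ha, to soil surface after seeding, preemergence.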

ORYSAT (Rice, Tebonnet) = assay: Postemergence herbicidal evaluation; type: in vivo, Oryza sativa, (L.) Tebonnet; settings: postemergence
Procedure, shortened: as §1

CYPSE (Flatsedge) [1] = assay: Postemergence weed control under flooded paddy conditions; type: in vivo, Cyperus serotinus; settings: postemergence weeds, 3-4 weeks after treatment
Procedure, shortened: (§3)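 Containers holding 3–5 cm weeds and rice at 1.5–2.5 leaves are flooded to 1.5–3 cm above soil. Compound in 50/50 v/v aqueous/acetone is then added directly to the water, about 0.0313–0.500 kg/ha. Plants are kept in the greenhouse and rated 0–9 visually at 3–4 weeks.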

CYPIR (Rice Flatsedge) = assay: as above; type: in vivo, Cyperus iria; settings: postemergence weeds, 3-4 weeks after treatment
Procedure, shortened: as §3

ABUTH (Velvetleaf) = assay: Postemergence herbicidal evaluation; type: in vivo, Abutilon theophrasti; settings: postemergence
Procedure, shortened: as §1

CYPSE (Flatsedge) [2] = assay: Preemergence weed control under flooded paddy conditions; type: in vivo, Cyperus serotinus; settings: rated 3-4 weeks after treatment
Procedure, shortened: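 Ratings on a 0-9 visual scale cover stand, vigor, malformation, size, chlorosis and overall appearance relative to a control, taken three to four weeks post-treatment. Application was into flood water over freshly sown silt loam at roughly 0.0313 to 0.500 kg/ha.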

[3] = system: GLXMAW (Soybean, Williams); assay: Postemergence herbicidal evaluation; type: in vivo, Glycine max, (L.) Merr. cv Williams; settings: postemergence
Procedure, shortened: as §1

[4] = system: CHEAL (Lambsquarters, Common); assay: Preemergence herbicidal evaluation; type: in vivo, Chenopodium album; settings: rated 4-5 weeks after treatment
Procedure, shortened: as §2

CASOB (Sicklepod) = assay: Preemergence herbicidal evaluation; type: in vivo, Cassia obtusifolia; settings: rated 4-5 weeks after treatment
Procedure, shortened: as §2

ECHCG (Barnyardgrass) = assay: Postemergence herbicidal evaluation; type: in vivo, Echinochloa crus-galli; settings: postemergence
Procedure, shortened: as §1

AMBEL (Ragweed, Common) [5] = assay: Preemergence herbicidal evaluation; type: in vivo, Ambrosia artemisifolia; settings: rated 4-5 weeks after treatment
Procedure, shortened: as §2

AMBEL (Ragweed, Common) [6] = assay: Postemergence herbicidal evaluation; type: in vivo, Ambrosia artemisifolia; settings: postemergence
Procedure, shortened: as §1

[7] = system: CHEAL (Lambsquarters, Common); assay: Postemergence herbicidal evaluation; type: in vivo, Chenopodium album; settings: postemergence
Procedure, shortened: as §1

**Q.** `CCOC(=O)CN1C(=O)C(=C(C)C)S/C1=N/c1cc(-n2c(=O)cc(C(F)(F)F)n(C)c2=O)c(F)cc1Cl` [Compound 20, Ethyl 2-{{2-chloro-5-[3,6-dihydro-3-methyl-2,6-dioxo-4-(trifluoromethyl)-1(2H)-pyrimidinyl]-4-fluorophenyl}imino}-5-isopropylidene-4-oxo-3-thiazolidineacetate] was tested. Which ZEAMX herbicidal rating (ZEAMX (Corn, Field); rate 0.0158 kg/ha) did it give?
**A.** 4.5

**Q.** And the ZEAMX herbicidal rating (ZEAMX (Corn, Field); rate 0.0315 kg/ha)?
**A.** 5.0

**Q.** And the ZEAMX herbicidal rating (ZEAMX (Corn, Field); rate 0.0630 kg/ha)?
**A.** 5.5

**Q.** What about the “GALAP preemergence herbicidal rating” value (GALAP (Galium); rate 0.0625 kg/ha) of the same compound?
**A.** 0.0

**Q.** What about the “GALAP preemergence herbicidal rating” value (GALAP (Galium); rate 0.1250 kg/ha) of the same compound?
**A.** 0.0

**Q.** What about the “GALAP preemergence herbicidal rating” value (GALAP (Galium); rate 0.2500 kg/ha) of the same compound?
**A.** 0.0

**Q.** What about the ORYSAT herbicidal rating (ORYSAT (Rice, Tebonnet); rate 0.0158 kg/ha) of the same compound?
**A.** 2.0

**Q.** And the ORYSAT herbicidal rating (ORYSAT (Rice, Tebonnet); rate 0.0315 kg/ha)?
**A.** 2.0

**Q.** What about the ORYSAT herbicidal rating (ORYSAT (Rice, Tebonnet); rate 0.0630 kg/ha) of the same compound?
**A.** 3.0

**Q.** And the “Herbicidal rating CYPSE” value (CYPSE (Flatsedge) [1]; rate 0.1160 kg/ha)?
**A.** 5.0

**Q.** What about the “Herbicidal rating CYPSE” value (CYPSE (Flatsedge) [1]; rate 0.2310 kg/ha) of the same compound?
**A.** 5.0

**Q.** What about the “Herbicidal rating CYPSE” value (CYPSE (Flatsedge) [1]; rate 0.4630 kg/ha) of the same compound?
**A.** 5.0

**Q.** And the “Herbicidal rating CYPIR” value (CYPIR (Rice Flatsedge); rate 0.1160 kg/ha)?
**A.** 0.0

**Q.** And the “Herbicidal rating CYPIR” value (CYPIR (Rice Flatsedge); rate 0.2310 kg/ha)?
**A.** 0.0

**Q.** And the “Herbicidal rating CYPIR” value (CYPIR (Rice Flatsedge); rate 0.4630 kg/ha)?
**A.** 0.0

**Q.** And the ABUTH herbicidal rating (ABUTH (Velvetleaf); rate 0.0158 kg/ha)?
**A.** 9.0

**Q.** What about the ABUTH herbicidal rating (ABUTH (Velvetleaf); rate 0.0315 kg/ha) of the same compound?
**A.** 9.0

**Q.** And the ABUTH herbicidal rating (ABUTH (Velvetleaf); rate 0.0630 kg/ha)?
**A.** 9.0

**Q.** And the “Herbicidal rating CYPSE” value (CYPSE (Flatsedge) [2]; 0.1160 kg/ha)?
**A.** 5.0

**Q.** What about the “Herbicidal rating CYPSE” value (CYPSE (Flatsedge) [2]; 0.2310 kg/ha) of the same compound?
**A.** 5.0

**Q.** What about the “Herbicidal rating CYPSE” value (CYPSE (Flatsedge) [2]; 0.4630 kg/ha) of the same compound?
**A.** 5.0

**Q.** And the GLXMAW herbicidal rating ([3]; rate 0.0158 kg/ha)?
**A.** 3.5

**Q.** What about the GLXMAW herbicidal rating ([3]; rate 0.0315 kg/ha) of the same compound?
**A.** 4.0

**Q.** And the GLXMAW herbicidal rating ([3]; rate 0.0630 kg/ha)?
**A.** 5.5

**Q.** And the “CHEAL preemergence herbicidal rating” value ([4]; rate 0.0625 kg/ha)?
**A.** 9.0

**Q.** And the “CHEAL preemergence herbicidal rating” value ([4]; rate 0.1250 kg/ha)?
**A.** 9.0

**Q.** And the “CHEAL preemergence herbicidal rating” value ([4]; rate 0.2500 kg/ha)?
**A.** 9.0

**Q.** And the “CASOB preemergence herbicidal rating” value (CASOB (Sicklepod); rate 0.0625 kg/ha)?
**A.** 0.0

**Q.** What about the “CASOB preemergence herbicidal rating” value (CASOB (Sicklepod); rate 0.1250 kg/ha) of the same compound?
**A.** 0.0

**Q.** And the “CASOB preemergence herbicidal rating” value (CASOB (Sicklepod); rate 0.2500 kg/ha)?
**A.** 9.0

**Q.** What about the ECHCG herbicidal rating (ECHCG (Barnyardgrass); rate 0.0158 kg/ha) of the same compound?
**A.** 1.0

**Q.** And the ECHCG herbicidal rating (ECHCG (Barnyardgrass); rate 0.0315 kg/ha)?
**A.** 1.0

**Q.** And the ECHCG herbicidal rating (ECHCG (Barnyardgrass); rate 0.0630 kg/ha)?
**A.** 2.0

**Q.** And the “AMBEL preemergence herbicidal rating” value (AMBEL (Ragweed, Common) [5]; rate 0.0625 kg/ha)?
**A.** 0.0

**Q.** And the “AMBEL preemergence herbicidal rating” value (AMBEL (Ragweed, Common) [5]; rate 0.1250 kg/ha)?
**A.** 0.0

**Q.** And the “AMBEL preemergence herbicidal rating” value (AMBEL (Ragweed, Common) [5]; rate 0.2500 kg/ha)?
**A.** 3.0

**Q.** And the AMBEL herbicidal rating (AMBEL (Ragweed, Common) [6]; rate 0.0158 kg/ha)?
**A.** 4.0

**Q.** And the AMBEL herbicidal rating (AMBEL (Ragweed, Common) [6]; rate 0.0315 kg/ha)?
**A.** 5.0

**Q.** What about the AMBEL herbicidal rating (AMBEL (Ragweed, Common) [6]; rate 0.0630 kg/ha) of the same compound?
**A.** 6.0

**Q.** What about the CHEAL herbicidal rating ([7]; rate 0.0158 kg/ha) of the same compound?
**A.** 4.0

**Q.** What about the CHEAL herbicidal rating ([7]; rate 0.0315 kg/ha) of the same compound?
**A.** 6.0

**Q.** And the CHEAL herbicidal rating ([7]; rate 0.0630 kg/ha)?
**A.** 7.0
